Data published in publication PMC4568520, “Interrogation of the intersubunit interface of the open Hv1 proton channel with a probe of allosteric coupling” (Scientific Reports, 2015).
Positions count from the first letter of the chain named.

Tests used:
[1] = biological target: T1, human Hv1 (wild type, dimeric) (Homo sapiens, UniProt Q96D96); assay: inside-out patch clamp, proton current inhibition, Hill fit; format: biochemical; details: wild-type dimer; open-channel block at +120 mV; pHi = pHo = 6.0; 22 °C; inhibitor on intracellular side
T1 construct: gene HVCN1; full-length human Hv1 homodimer, 273 residues; pGEMHE cRNA in Xenopus laevis oocytes, inside-out patches
T1 sequence (Q96D96 1-273): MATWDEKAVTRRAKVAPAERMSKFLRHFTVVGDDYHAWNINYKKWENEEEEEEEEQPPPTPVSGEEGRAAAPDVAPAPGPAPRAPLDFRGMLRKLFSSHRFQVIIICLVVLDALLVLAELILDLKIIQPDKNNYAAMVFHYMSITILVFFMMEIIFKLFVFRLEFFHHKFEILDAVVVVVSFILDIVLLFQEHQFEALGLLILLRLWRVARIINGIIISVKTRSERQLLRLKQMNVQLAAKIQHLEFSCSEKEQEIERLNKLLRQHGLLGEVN

[2] = biological target: T1, human Hv1 (wild type, dimeric); assay: cell-based; design: species or system Xenopus oocytes; patch-clamp proton currents, Hill fit of current inhibition, +120 mV, pHi = pHo = 6.0; details: apparent Kd, Hill fit of current inhibition; read-out: Kd (µM) (±SE)
Source text: Figure 1 Hv1 inhibition by guanidinothiazole derivatives. […] [2] 2-guanidino-benzothiazole (GBTA), [3] (5-trifluoromethyl-1,3-benzothiazol-2-yl)guanidine, [4] naphtho[1,2-d][1,3]thiazol-2-yl-guanidine, [5] (4-methyl-1,3-thiazol-2-yl)guanidine, [6] […] 1-[4-(4-chlorophenyl)-1,3-thiazol-2-yl]guanidine, [12] 1-[4-(3,4-dimethoxyphenyl)-1,3-thiazol-2-yl]guanidine. (b) Inhibition of human Hv1 activity by the indicated guanidinothiazoles and reference compound 2GBI (teal column). Hv1 proton currents were measured in inside out patches from Xenopus oocytes in response to depolarizations to +120 mV from a holding potential of −80 mV. Each inhibitor was added to the bath solution at a concentration of 200 μM. pHi = pHo = 6.0. Data are means ± S.E.M. (n ≥ 4). (c) Concentration dependences of inhibition of human Hv1 by compounds [2], [3], [6], and [11]. […] Apparent dissociation constants (Kd) for the different combinations of channel and inhibitor (Supplementary Table 1) were determined by fitting the concentration dependences of inhibition (average %inhib values) with the Hill equation: Figure 6 Open-state coupling is mediated by direct physical interaction between outer ends of S1 segments in the two subunits. […] Hill coefficients in inset histograms were determined from fits reported in Supplementary Figs 3 and 4. […]

[3] = biological target: T2, D112E I127C+βME (Homo sapiens, UniProt Q96D96, D112E/I127C); assay: cell-based; design: species or system Xenopus oocytes; patch-clamp proton currents, Hill fit of current inhibition, +120 mV, pHi = pHo = 6.0; details: read-out: Kd (µM) (±SE)
T2 construct: gene HVCN1; Hv1 homodimer, cysteines reduced by 10 mM βME
T2 sequence (Q96D96 1-273 D112E/I127C): T1 sequence (Q96D96 1-273) with D112E, I127C
Method: (§1) [2] 2-guanidino-benzothiazole (GBTA), [3] (5-trifluoromethyl-1,3-benzothiazol-2-yl)guanidine, [4] naphtho[1,2-d][1,3]thiazol-2-yl-guanidine, [5] (4-methyl-1,3-thiazol-2-yl)guanidine, [6] […] 1-[4-(4-chlorophenyl)-1,3-thiazol-2-yl]guanidine, [12] 1-[4-(3,4-dimethoxyphenyl)-1,3-thiazol-2-yl]guanidine. […] Hv1 proton currents were measured in inside out patches from Xenopus oocytes in response to depolarizations to +120 mV from a holding potential of −80 mV. Each inhibitor was added to the bath solution at a concentration of 200 μM. pHi = pHo = 6.0. Data are means ± S.E.M. (n ≥ 4). […] (a) Schematics of mutant Hv1 dimers and linked dimers designed to study how intersubunit cysteine crosslinking affects GBTA binding cooperativity. […] Hill coefficients in inset histograms were determined from fits reported in Supplementary Figs 3 and 4.

[4] = biological target: T3, I127C+βME (Homo sapiens, UniProt Q96D96, I127C); assay: cell-based; design: species or system Xenopus oocytes; patch-clamp proton currents, Hill fit of current inhibition, +120 mV, pHi = pHo = 6.0; details: read-out: Kd (µM) (±SE)
T3 construct: gene HVCN1; Hv1 homodimer, cysteines reduced by 10 mM βME
T3 sequence (Q96D96 1-273 I127C): T1 sequence (Q96D96 1-273) with I127C
Method: as §1

[5] = biological target: T4, human Hv1 (wild type, dimeric) D123R (Homo sapiens, UniProt Q96D96, D123R); assay: cell-based; design: species or system Xenopus oocytes; patch-clamp proton currents, Hill fit of current inhibition, +120 mV, pHi = pHo = 6.0; details: apparent Kd, Hill fit of current inhibition; read-out: Kd (µM) (±SE)
T4 construct: gene HVCN1; full-length human Hv1 homodimer, 273 residues; pGEMHE cRNA in Xenopus laevis oocytes, inside-out patches
T4 sequence (Q96D96 1-273 D123R): T1 sequence (Q96D96 1-273) with D123R
Method: as §1

[6] = biological target: T5, human Hv1 (wild type, dimeric) E119A (Homo sapiens, UniProt Q96D96, E119A); assay: cell-based; design: species or system Xenopus oocytes; patch-clamp proton currents, Hill fit of current inhibition, +120 mV, pHi = pHo = 6.0; details: apparent Kd, Hill fit of current inhibition; read-out: Kd (µM) (±SE)
T5 construct: gene HVCN1; full-length human Hv1 homodimer, 273 residues; pGEMHE cRNA in Xenopus laevis oocytes, inside-out patches
T5 sequence (Q96D96 1-273 E119A): T1 sequence (Q96D96 1-273) with E119A
Method: as §1

[7] = biological target: T6, human Hv1 (wild type, dimeric) K125A (Homo sapiens, UniProt Q96D96, K125A); assay: cell-based; design: species or system Xenopus oocytes; patch-clamp proton currents, Hill fit of current inhibition, +120 mV, pHi = pHo = 6.0; details: apparent Kd, Hill fit of current inhibition; read-out: Kd (µM) (±SE)
T6 construct: gene HVCN1; full-length human Hv1 homodimer, 273 residues; pGEMHE cRNA in Xenopus laevis oocytes, inside-out patches
T6 sequence (Q96D96 1-273 K125A): T1 sequence (Q96D96 1-273) with K125A
Method: as §1

| Kd [2] | Kd [3] | Kd [4] | Kd [5] | Kd [6] | Kd [7] | Structure (SMILES) | apparent Kd [1] |
| --- | --- | --- | --- | --- | --- | --- | --- |
| – | – | – | – | – | – | NC(N)=Nc1nc2ccccc2[nH]1 [compound 1, 2-Guanidino-benzimidazole] | inhibition of dimeric and monomeric Hv1 by compounds 2GBI and GBTA |
| 90 ± 7 µM | 191 ± 11 µM | 44.3 ± 2.5 µM | 35.8 ± 2.4 µM | 40.5 ± 2.9 µM | 86 ± 6 µM | N=C(N)Nc1nc2ccccc2s1 [compound 2, 2-guanidino-benzothiazole] | – |
